# From patent US6482921B1, “Uridyl peptide antibiotic (UPA) derivatives, their synthesis and use” (Essential Therapeutics, Inc., priority 1999, dated 2002)
# How the values were obtained:
# [1] = tested on: Pasteurella multocida pm002; test: MIC broth microdilution, P. multocida pm002 (wild type); type: cell-based
# [2] = tested on: Escherichia Coli MC 4100 AcrAB; test: MIC broth microdilution, E. coli MC 4100 AcrAB (ΔAcrAB); type: cell-based; conditions: E. coli AcrAB
# [3] = tested on: Mycobacterium smegmatis ATCC 19420; test: MIC broth microdilution, M. smegmatis ATCC 19420; conditions: 72 hours at 35° C., CAMHB
# [4] = tested on: Pseudomonas aeruginosa PAM 1020; test: MIC broth microdilution, P. aeruginosa PAM 1020 (wild type); type: cell-based; conditions: P. aeruginosa PAM 1020
# [5] = tested on: Pseudomonas aeruginosa PAM 1323; test: MIC broth microdilution, P. aeruginosa PAM 1323 (medium level UPA resistance); type: cell-based
# [6] = tested on: Pseudomonas aeruginosa PAM 1135; test: MIC broth microdilution, P. aeruginosa PAM 1135 (high level UPA resistance); type: cell-based; conditions: P. aeruginosa PAM 1135 UPA1^r
# [7] = tested on: Escherichia Coli MC 4100 AcrAB UPA3r; test: MIC broth microdilution, E. coli MC 4100 AcrAB UPA3r (ΔAcrAB, UPA resistant); type: cell-based; conditions: E. coli AcrAB UPA3^r
# [8] = tested on: Staphylococcus aureus ATCC 29213; test: MIC broth microdilution, S. aureus ATCC 29213 (wild type); type: cell-based; conditions: S. aureus ATCC 29213
# Escherichia Coli MC 4100 = test: MIC broth microdilution, E. coli MC 4100 (wild type); type: cell-based; conditions: E. coli MC 4100
# [9] = tested on: Mycobacterium fortuitum ATCC 6841; test: MIC broth microdilution, M. fortuitum ATCC 6841; conditions: 72 hours at 35° C., CAMHB
# [10] = tested on: Staphylococcus aureus 8325-4; test: MIC broth microdilution, S. aureus 8325-4 (wild type); type: cell-based; conditions: S. aureus 8325-4
# [11] = tested on: Pseudomonas aeruginosa PAM 1154; test: MIC broth microdilution, P. aeruginosa PAM 1154 (OprM::Hg); type: cell-based; conditions: P. aeruginosa PAM 1154 OprM::Hg
SMILES,MIC (μg/ml) Broth microdilution [1],MIC (μg/ml) Broth microdilution [2],MIC Broth microdilution M. smegmatis ATCC19420 [3],MIC (μg/ml) Broth microdilution [4],MIC (μg/ml) Broth microdilution [5],MIC (μg/ml) Broth microdilution [6],MIC (μg/ml) Broth microdilution [7],MIC (μg/ml) Broth microdilution [8],MIC (μg/ml) Broth microdilution (Escherichia Coli MC 4100),MIC Broth microdilution M. fortuitum ATCC 6841 [9],MIC (μg/ml) Broth microdilution [10],MIC (μg/ml) Broth microdilution [11]
"CC(C)CC(N)C(=O)N(C)C(C)C(NC(=O)C(Cc1ccc(F)cc1)NC(=O)NC(Cc1c[nH]c2ccccc12)C(=O)O)C(=O)NCC1CC(O)C(n2ccc(=O)[nH]c2=O)O1 [Compound 117, 1-[5′-[(2S,3S)-N^2-[N-[[(1S)-1-Carboxy-2-indol-3-ylethyl]carbamoyl]-L-4-fluorophenylalanyl]-N^3-L-leucyl-N^3-methyl-2,3-diaminobutyramido]-3′,5′-dideoxy-α-L-arabinofuranosyl]uracil]",256 µg/mL,<1 µg/mL,8 µg/mL,64 µg/mL,>512 µg/mL,>512 µg/mL,32 µg/mL,>512 µg/mL,>512 µg/mL,64 µg/mL,>512 µg/mL,64 µg/mL
"C[C@@H]([C@H](NC(=O)[C@H](Cc1ccccc1)NC(=O)N[C@@H](Cc1c[nH]c2ccccc12)C(=O)O)C(=O)NC[C@H]1C[C@@H](O)[C@H](n2ccc(=O)[nH]c2=O)O1)N(C)C(=O)CN [Compound 128, 1-[5′-[(2S,3S)-N^2-[N-[[(1S)-1-Carboxy-2-indol-3-ylethyl]carbamoyl]-L-phenylalanyl]-N^3-glycyl-N^3-methyl-2,3-diaminobutyramido]-3′,5′-dideoxy-α-L-arabinofuranosyl]uracil]",64 µg/mL,2 µg/mL,4 µg/mL,8 µg/mL,>512 µg/mL,>512 µg/mL,16 µg/mL,>512 µg/mL,256 µg/mL,64 µg/mL,256 µg/mL,<1 µg/mL
"CC(N)C(=O)N(C)C(C)C(NC(=O)C(Cc1csc2ccccc12)NC(=O)NC(Cc1ccc(O)cc1)C(=O)O)C(=O)NCC1CC(O)C(n2ccc(=O)[nH]c2=O)O1 [Compound 130, 1-[5′-[(2S,3S)-N^3-L-Alanyl-N^2-[N-[[(1S)-1-carboxy-4-hydroxyphenethyl]carbamoyl]-L-benzothienylalanyl]-N^3-methyl-2,3-diaminobutyramidol-3′,5′-dideoxy-α-L-arabinofuranosyl]uracil]",512 µg/mL,8 µg/mL,8 µg/mL,64 µg/mL,>512 µg/mL,>512 µg/mL,16 µg/mL,128 µg/mL,64 µg/mL,32 µg/mL,256 µg/mL,16 µg/mL
"CC(N)C(=O)N(C)C(C)C(NC(=O)C(Cc1ccc(I)cc1)NC(=O)NC(Cc1ccc(O)cc1)C(=O)O)C(=O)NCC1CC(O)C(n2ccc(=O)[nH]c2=O)O1 [Compound 134, 1-[5′-[(2S,3S)-N^3-L-Alanyl-N^2-[N-[[(1S)-1-carboxy-4-hydroxyphenethyl]carbamoyl]-L-4-iodophenylalanyl]-N^3-methyl-2,3-diaminobutyramido]-3′,5′-dideoxy-α-L-arabinofuranosyl]uracil]",>512 µg/mL,<1 µg/mL,16 µg/mL,256 µg/mL,>512 µg/mL,>512 µg/mL,32 µg/mL,512 µg/mL,128 µg/mL,32 µg/mL,512 µg/mL,32 µg/mL
"CC(N)C(=O)N(C)C(C)C(NC(=O)C(Cc1ccc(Cl)cc1)NC(=O)NC(Cc1ccc(O)cc1)C(=O)O)C(=O)NCC1CC(O)C(n2ccc(=O)[nH]c2=O)O1 [Compound 135, 1-[5′-[(2S,3S)-N^3-L-Alanyl-N^2-[N-[[(1S)-1-carboxy-4-hydroxyphenethyl]carbamoyl]-L-4-chlorophenylalanyl]-N^3-methyl-2,3-diaminobutyramido]-3′,5′-dideoxy-α-L-arabinofuranosyl]uracil]",512 µg/mL,<1 µg/mL,16 µg/mL,64 µg/mL,>512 µg/mL,>512 µg/mL,2 µg/mL,512 µg/mL,8 µg/mL,64 µg/mL,>512 µg/mL,16 µg/mL
"CC(N)C(=O)N(C)C(C)C(NC(=O)C(CC1CCCCC1)NC(=O)NC(Cc1c[nH]c2ccccc12)C(=O)O)C(=O)NCC1CC(O)C(n2ccc(=O)[nH]c2=O)O1 [Compound 136, 1-[5-(2S 3S)-N^3-L-Alanyl-N^2-[N-[[(1S)-1-carboxy-2-indol-3-ylethyl]carbamoyl]-L-cyclohexylalanyl]-N^3-methyl-2,3-diaminobutyramido]-3′,5′-dideoxy-α-L-arabinofuranosyl]uracil]",>512 µg/mL,4 µg/mL,8 µg/mL,128 µg/mL,>512 µg/mL,>512 µg/mL,64 µg/mL,>512 µg/mL,>512 µg/mL,128 µg/mL,>512 µg/mL,64 µg/mL
"CSCCC(NC(=O)NC(Cc1c[nH]c2ccccc12)C(=O)O)C(=O)NC(C(=O)NCC1CC(O)C(n2ccc(=O)[nH]c2=O)O1)C(C)N(C)C(=O)C(C)N [Compound 167, 1-[5′-[(2S,3S)-N^3-L-Alanyl-N^2-[N-[[(1S)-1-carboxy-2-indol-3-ylethyl]carbamoyl]-L-methionyl]-N^3-methyl-2,3-diaminobutyramido]-3′,5′-dideoxy-α-L-arabinofuranosyl]uracil]",128 µg/mL,4 µg/mL,,512 µg/mL,512 µg/mL,>512 µg/mL,128 µg/mL,>512 µg/mL,512 µg/mL,,>512 µg/mL,256 µg/mL
"CSCCC(N)C(=O)N(C)C(C)C(NC(=O)C(C)NC(=O)NC(Cc1c[nH]c2ccccc12)C(=O)O)C(=O)NCC1CC(O)C(n2ccc(=O)[nH]c2=O)O1 [Compound 168, 1-[5′-[(2S,3S)-N^2-[N-[[(1S)-1-Carboxy-2-indol-3-ylethyl]carbamoyl]-L-alanyl]-N^3-L-methionyl-N^3-methyl-2,3-diaminobutyramido]-3′,5′-dideoxy-α-L-arabinofuranosyl]uracil]",256 µg/mL,4 µg/mL,,64 µg/mL,>512 µg/mL,>512 µg/mL,256 µg/mL,>512 µg/mL,>512 µg/mL,,>512 µg/mL,8 µg/mL
"CC(C)[C@H](NC(=O)N[C@@H](Cc1c[nH]c2ccccc12)C(=O)O)C(=O)N[C@H](C(=O)NC[C@H]1C[C@@H](O)[C@H](n2ccc(=O)[nH]c2=O)O1)[C@H](C)N(C)C(=O)[C@H](C)N [Compound 169, 1-[5′-[(2S,3S)-N^3-L-Alanyl-N^2-[N-[[(1S)-1-carboxy-2-indol-3-ylethyl]carbamoyl]-L-valinyl]-N^3-methyl-2,3-diaminobutyramido]-3′,5′-dideoxy-α-L-arabinofuranosyl]uracil]",128 µg/mL,2 µg/mL,,128 µg/mL,64 µg/mL,>512 µg/mL,32 µg/mL,>512 µg/mL,256 µg/mL,,>512 µg/mL,128 µg/mL
